Converted amounts (≈) assume the structure as drawn. Where two headings read alike, the source gives them in different places.
Columns and labels:
[1] = test system: MCF-7 breast cancer cell line; assay: MTT cytotoxicity assay, MCF-7; assay type: cell-based; conditions: Homo sapiens, MCF7, read-out: IC50 (μg mL^−1) ± SD MCF7
[2] = test system: MDA-MB-231 breast cancer cell line; assay: MTT cytotoxicity assay, MDA-MB-231; assay type: cell-based; conditions: Homo sapiens, MDA-MB-231, read-out: IC50 (μg mL^−1) ± SD MDA-MB231
MCF-7 cells = assay: Apoptosis induction in MCF-7 cells; assay type: cell-based, human; conditions: MCF-7 cells (Fig. 4)
MDA-MB-231 cells = assay: Apoptosis induction in MDA-MB-231 cells; assay type: cell-based, human; conditions: MDA-MB-231 cells (Fig. 4)
AChE = AChE (Homo sapiens, UniProt P22303); assay: Anticholinesterase inhibitory assay; assay type: biochemical
[3] = test system: MRSA (Staphylococcus aureus ATCC 43300); assay: Anti-MRSA MIC, broth microdilution; assay type: cell-based; conditions: for anti-MRSA potency compared to Linezolid: MIC comparison; for Interpretation (of MIC): MRSA, Table 3
[4] = test system: MRSA (Staphylococcus aureus ATCC 43300); assay: Minimum bactericidal concentration; assay type: cell-based; conditions: for Interpretation (of MBC/MIC): Table 4
MRSA biofilm = assay: Antibiofilm activity, crystal violet assay; assay type: cell-based, Staphylococcus aureus
normal HDF cells = assay: Apoptosis/cytotoxicity in normal HDF cells
MRSA = assay: Time-kill assay against MRSA; assay type: cell-based, Staphylococcus aureus; conditions: 0-24 h
[5] = test system: MCF-7 breast cancer cell line; conditions: read-out: IC50 in MCF-7; known value quoted for comparison; no reference given; cited from earlier work

Chain of AChE (P22303 32-614): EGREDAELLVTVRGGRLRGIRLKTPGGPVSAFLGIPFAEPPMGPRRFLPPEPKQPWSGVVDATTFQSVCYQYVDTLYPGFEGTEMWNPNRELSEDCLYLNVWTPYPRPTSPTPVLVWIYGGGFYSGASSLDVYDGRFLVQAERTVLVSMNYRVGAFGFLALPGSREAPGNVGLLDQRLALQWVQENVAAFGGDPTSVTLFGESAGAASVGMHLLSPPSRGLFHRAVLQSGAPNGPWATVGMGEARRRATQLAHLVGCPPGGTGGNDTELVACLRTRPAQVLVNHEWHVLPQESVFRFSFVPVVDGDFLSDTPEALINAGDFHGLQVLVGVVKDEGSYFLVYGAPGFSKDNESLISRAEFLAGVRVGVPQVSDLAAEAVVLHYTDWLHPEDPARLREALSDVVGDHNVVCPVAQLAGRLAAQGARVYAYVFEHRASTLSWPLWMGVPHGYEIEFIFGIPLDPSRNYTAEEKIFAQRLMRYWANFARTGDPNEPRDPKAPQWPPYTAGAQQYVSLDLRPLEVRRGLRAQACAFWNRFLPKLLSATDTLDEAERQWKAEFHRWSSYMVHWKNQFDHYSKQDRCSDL

Q: With `CN1C(=O)/C(=N\Nc2ncc(-c3cc4ccccc4oc3=O)s2)c2cc(Cl)ccc21` [Compound 5, (Z)-5-chloro-1-methyl-3-(2-(5-(2-oxo-2H-chromen-3-yl)thiazol-2-yl)hydrazono)indolin-2-one] as the compound, how does the IC50 [1] read?
A: Its IC50 is 10.8 ± 1.19 µg/mL (≈ 24.8 µM).

Q: What about the IC50 [2] of the same compound?
A: The IC50 was 14.4 ± 1.89 µg/mL (≈ 33.1 µM).

Q: What about the apoptosis induction (MCF-7 cells) of the same compound?
A: The apoptosis induction was “moderate apoptosis”.

Q: And the apoptosis induction (MDA-MB-231 cells)?
A: The apoptosis induction was “moderate apoptosis”.

Q: And the IC50 (AChE)?
A: The IC50 was 99.8 nM.

Q: What about the “anti-MRSA potency compared to Linezolid” value [3] of the same compound?
A: Its value is “superior potency”.

Q: And the “Interpretation (of MIC)” value [3]?
A: Its value is “Extremely potent”.

Q: What about the MBC/MIC [4] of the same compound?
A: Its MBC/MIC is 5.7.

Q: What about the “Interpretation (of MBC/MIC)” value [4] of the same compound?
A: The value was “Moderate bactericidal”.

Q: And the inhibition at 1.3 µg/mL (MRSA biofilm; Staphylococcus aureus, MRSA, read-out: inhibition of MRSA biofilm formation)?
A: The inhibition at 1.3 µg/mL was roughly 40%.

Q: And the “eradication of preformed MRSA biofilms” value (MRSA biofilm; various concentrations (Fig. 8Z))?
A: Its value is “eradication efficiency increasing in a concentration-dependent manner”.

Q: And the “apoptosis / cytotoxicity in normal cells” value (normal HDF cells)?
A: Its value is “significantly lower cytotoxicity”.

Q: What does the source list for `CCc1ccc(N2C(=O)/C(=C3/C(=O)N(C)c4ccc(Cl)cc43)NC2=S)cc1` [Compound 9, (Z)-5-chloro-3-(1-(4-ethylphenyl)-5-oxo-2-thioxoimidazolidin-4-ylidene)-1-methylindolin-2-one]?
A: IC50 [1]: 24 ± 1.49 µg/mL (≈ 60.3 µM); IC50 [2]: 28.4 ± 2.19 µg/mL (≈ 71.4 µM); IC50 (AChE): 302 nM; anti-MRSA potency compared to Linezolid [3]: significantly less potent; Interpretation (of MIC) [3]: Weak activity

Q: Which IC50 [1] does the source give for `CN1C(=S)N(c2ccccc2)C(=O)/C1=C1/C(=O)N(C)c2ccc(Cl)cc21` [Compound 12, (Z)-5-chloro-1-methyl-3-(3-methyl-5-oxo-1-phenyl-2-thioxoimidazolidin-4-ylidene)indolin-2-one] here?
A: Its IC50 is 16 ± 1.15 µg/mL (≈ 41.7 µM).

Q: What about the IC50 [2] of the same compound?
A: Its IC50 is 27.3 ± 2.01 µg/mL (≈ 71.1 µM).

Q: Which IC50 [1] does the source give for `COc1cccc2c1C(=O)c1c(O)c3c(c(O)c1C2=O)C[C@@](O)(C(=O)CO)C[C@@H]3O[C@H]1C[C@H](N)[C@H](O)[C@H](C)O1` [Doxorubicin, reference compound] here?
A: The IC50 was 25.1 ± 1.67 µg/mL (≈ 46.3 µM).

Q: What about the IC50 [2] of the same compound?
A: Its IC50 is 36.6 ± 2.12 µg/mL (≈ 67.3 µM).

Q: What does the source list for `CC(=O)NC[C@H]1CN(c2ccc(N3CCOCC3)c(F)c2)C(=O)O1` [Linezolid, reference compound]?
A: MBC/MIC [4]: 17.6; Interpretation (of MBC/MIC) [4]: Bacteriostatic; time-kill outcome (MRSA): remained bacteriostatic, showing no significant kill at any time point

Q: For `CC1(C)CCC(c2ccc(Cl)cc2)=C(CN2CCN(c3ccc(C(=O)NS(=O)(=O)c4ccc(N[C@H](CCN5CCOCC5)CSc5ccccc5)c(S(=O)(=O)C(F)(F)F)c4)cc3)CC2)C1` [Navitoclax, reference compound], which apoptosis induction (MCF-7 cells) is on record?
A: Its apoptosis induction is “high levels of apoptosis”.

Q: What about the apoptosis induction (MDA-MB-231 cells) of the same compound?
A: The apoptosis induction was “high levels of apoptosis”.

Q: What about the IC50 [5] of the same compound?
A: The IC50 was 1000 nM.

Q: What about the “apoptosis / cytotoxicity in normal cells” value (normal HDF cells) of the same compound?
A: The value was “high levels of apoptosis”.
